Source: article PMC9537572, “Elucidation of the binding mechanism of astragaloside IV derivative with human serum albumin and its cardiotoxicity in zebrafish embryos” (Frontiers in Pharmacology, 2022)
Marks after values point to notes of the source that are not given here.

Legend:
[1] = biological target: T1, HSA (Homo sapiens, UniProt P02768); assay: Plasma protein binding rate by equilibrium dialysis and UHPLC-MS/MS; type: in vitro ADME; details: human, plasma, equilibrium dialysis 72 h at 4 °C, n = 3, read-out: Protein binding rate (%, Mean±SD) (converted)
Procedure: The binding rate of AGS IV/LS-102 and HSA was determined using a slightly modified equilibrium dialysis method ([Metsu et al., 2020]). […] The stock solutions of HSA (0.5 ml) and drug group (0.5 ml) were placed in a dialysis membrane bag that was ligated at both ends and then immersed in a test tube filled with 50 ml of PBS solution for 72 h at 4 °C. After equilibrium, a 0.5-ml solution of outer dialysate and internal dialysate was collected into a 2-ml EP tube, and 10 µL IS (digoxin, 0.1 mg/ml) solution was added to each tube. Both samples were added to 1.5 ml of acetonitrile and vortexed for 3 min, and then the samples were separated via centrifugation at 18,000 × g for 20 min. The supernatants were transferred to another EP tube and dried under a nitrogen stream. The residue was redissolved in 1 ml methanol, sonicated for 2 min, vortexed for 3 min, and centrifuged at 18,000 × g for 10 min. The supernatant was filtered with a 0.22 µm microporous syringe filter in a 2 ml sample vial, and 1 µL was injected into the UHPLC-MS/MS system for analysis. The plasma protein binding rate was calculated according to the following formula ([Talbert et al., 2002]): Plasma binding rate=Internal drug concentration−External drug concentration/Initial drug concentration ×100%

[2] = system: zebrafish embryos; assay: Astemizole-induced toxicity in zebrafish heart development; type: in vivo; details: 250 µg/mL, n=30
Procedure: A total of 270 wild-type AB zebrafish at 2 h post-fertilization (2 hpf) were randomly selected, and 30 zebrafish were plated in each well of a six-well plates. The concentrations of LS-102 were 27.8, 83.3 and 250 µg/ml, while that of AGS IV was 250 µg/mL. A normal control group (fish culture water) and a 4 µM astemizole model control group were also established. After LS-102 and AGS IV were cotreated with astemizole for 48 h, zebrafish heart development was observed and photographed under a microscope to evaluate the ameliorative effect of LS-102 and AGS IV on astemizole-induced toxicity in zebrafish heart development.

[3] = system: zebrafish; assay: Arachidonic acid-induced thrombosis in zebrafish; type: in vivo; details: for Staining intensity of cardiac red blood cells (pixels) (mean ± se): 3 h pretreatment, arachidonic acid 1.5 h, n = 10; for Antithrombotic effect (%): vs. model group, arachidonic acid-induced thrombosis
Procedure: A total of 270 melanin allele mutant translucent albino strain zebrafish at 3 dpf were randomly selected, with 30 zebrafish per well in six-well plates. The concentrations of LS-102 were 6.25, 12.5, 25, 50, and 100 µg/ml, while that of AGS IV was 100 µg/ml, and the positive control drug aspirin was 25 µg/ml. After treatment with LS-102 and AGS IV for 3 h, arachidonic acid aqueous solution was administered for 1.5 h to induce a thrombosis model in zebrafish in all experimental groups except the normal group. After staining with o-anisidine, zebrafish were randomly selected from each experimental group and observed under a dissecting microscope and photographed. Data were collected to qualitatively evaluate thrombosis in zebrafish, and the intensity of cardiac erythrocyte staining (length of venous thrombus vs. number of cardiac erythrocytes) in zebrafish was analyzed and counted to establish, the preventive effect of LS-102 and AGS IV with aspirin on thrombosis in zebrafish. The formula was calculated as follows:
Thromboprophylactic effect (%) = S (drug administration group)−S (model group)/S (nomal control group)−S (model group)×100%

[4] = system: zebrafish embryos; assay: Astemizole-induced cardiotoxicity in zebrafish embryos: heart rate and SV-BA spacing; type: in vivo; details: 4 µM astemizole; for Heart rate (beats/min) (Mean±SE) / SV-BA spacing (µm) (Mean±SE): 250 µg/ml, n = 10
Procedure: A total of 270 wild-type AB zebrafish at 3 dpf were randomly selected, and 30 zebrafish were plated in each well of a six-well plates. The concentrations of LS-102 were 27.8, 83.3 and 250 µg/ml, AGS IV was 250 µg/mL. A normal control group (fish culture water) and a 4 µM astemizole model control group were also established. Ten zebrafish were randomly selected from each group, and the heart rate and venous sinus-to-arterial bulb distance (SV-BA) of zebrafish were observed under a dissecting microscope after 2 h, 6 h and 24 h of LS-102 and AGS IV treatment. Images were collected by photographing, and the ameliorative effect of LS-102 and AGS IV on astemizole-induced cardiotoxicity in zebrafish was evaluated by the statistical significance of the heart rate and the SV-BA interval index.

[5] = ref Xu et al., 2016; cited from earlier work
[6] = biological target: T1, HSA; assay: Site marker competitive experiments (warfarin, ibuprofen) by equilibrium dialysis; type: in vitro ADME; details: drug 0.476 mg/ml, n = 3, read-out: Plasma protein binding (converted)
Procedure: The site marker competitive experiments were performed using two classical site probes, warfarin and ibuprofen, which were selected as the markers of subdomain IIA (site I) and subdomain IIIA (site II) separately of HAS ([Ghuman et al., 2005]). The procedure was consistent with the method described in section 2.5, except that the concentrations of AGS IV and LS-102 were both fixed at 0.476 mg/ml, while the external dialysis solution was changed to contain the probe with a final concentration of 0, 0.06, 0.3, 1.2 mg/ml PBS solution. Briefly, the AGS IV/LS-102 HSA mixture (0.5 ml drug and 0.5 ml HSA) was separately incubated with three different concentrations of probe to evaluate the effects of warfarin or ibuprofen on drug-protein binding influence. Three replicates of each concentration were prepared. After equilibrium dialysis, the internal and external dialysates were analyzed by UHPLC-MS/MS.

T1 sequence (P02768 25-609): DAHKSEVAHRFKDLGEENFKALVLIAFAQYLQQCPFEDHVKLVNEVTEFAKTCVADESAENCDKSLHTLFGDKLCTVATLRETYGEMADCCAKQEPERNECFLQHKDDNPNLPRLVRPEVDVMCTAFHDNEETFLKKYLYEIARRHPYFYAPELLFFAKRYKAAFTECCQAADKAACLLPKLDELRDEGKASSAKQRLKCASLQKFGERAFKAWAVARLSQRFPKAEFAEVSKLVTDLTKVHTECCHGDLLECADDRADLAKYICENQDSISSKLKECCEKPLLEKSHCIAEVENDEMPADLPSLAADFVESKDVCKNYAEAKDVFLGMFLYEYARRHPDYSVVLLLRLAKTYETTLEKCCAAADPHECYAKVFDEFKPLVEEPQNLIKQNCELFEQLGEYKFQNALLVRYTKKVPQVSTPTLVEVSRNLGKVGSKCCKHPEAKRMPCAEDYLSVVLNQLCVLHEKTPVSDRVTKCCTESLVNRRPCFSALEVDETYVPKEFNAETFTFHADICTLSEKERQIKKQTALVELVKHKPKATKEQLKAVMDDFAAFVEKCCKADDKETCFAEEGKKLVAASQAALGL

CC(C)(O)C1CCC(C)(C2C(O)CC3(C)C4CC(OC5OC(CO)C(O)C(O)C5O)C5C(C)(C)C(OC6OCC(O)C(O)C6O)CCC56CC46CCC23C)O1 [AGS IV, 3-O-β-D-xylopyranosyl-6-O-β-D-glucopyranosyl-cycloastragenol, reference compound]
fraction unbound at 72 h, 0.238 mg/ml ([1]; drug 0.238 mg/ml): 0.0538 | fraction unbound at 72 h, 0.476 mg/ml ([1]; drug 0.476 mg/ml): 0.0258 | fraction unbound at 72 h, 0.714 mg/ml ([1]; drug 0.714 mg/ml): 0.0594 | Phenotype: cardiac capsular oedema, lack of blood flow (share of zebrafish) ([2]; 4 µM astemizole, 48 h): 100% cardiac capsular oedema, lack of blood flow | Mortality ([2]; cotreated with 4 µM astemizole 48 h from 2 hpf): 3.3% | Staining intensity of cardiac red blood cells (pixels) (mean ± se) ([3]; 100 µg/ml): 1446 ± 54 pixels | Antithrombotic effect (%) ([3]; 100 µg/ml): 5% | Heart rate (beats/min) (Mean±SE) ([4]; 2 h): 148 ± 1 beats/min | SV-BA spacing (µm) (Mean±SE) ([4]; 2 h): 210 ± 4 µm | Heart rate (beats/min) (Mean±SE) ([4]; 6 h): 146 ± 2 beats/min | SV-BA spacing (µm) (Mean±SE) ([4]; 6 h): 242 ± 7 µm | Heart rate (beats/min) (Mean±SE) ([4]; 24 h): 75 ± 25 beats/min | SV-BA spacing (µm) (Mean±SE) ([4]; 24 h): 241 ± 4 µm | Effect on astemizole-induced heart rate slowing and SV-BA spacing increase (in words) ([4]; 24 h): no significant changes | Degree of protein binding with human plasma [5]: up to 86.69% | fraction unbound at 72 h, 0.476 mg/ml ([6]; with ibuprofen 0.06 mg/ml): 0.0718 | fraction unbound at 72 h, 0.476 mg/ml ([6]; with ibuprofen 0.3 mg/ml): 0.0613 | fraction unbound at 72 h, 0.476 mg/ml ([6]; with ibuprofen 1.2 mg/ml): 0.0281 | fraction unbound at 72 h, 0.476 mg/ml ([6]; with warfarin 0.06 mg/ml): 0.051 | fraction unbound at 72 h, 0.476 mg/ml ([6]; with warfarin 0.3 mg/ml): 0.089 | fraction unbound at 72 h, 0.476 mg/ml ([6]; with warfarin 1.2 mg/ml): 0.0781 | fraction unbound at 72 h, 0.476 mg/ml ([6]; without site markers): 0.0333

CC(=O)Oc1ccccc1C(=O)O [Aspirin, aspirin, reference compound]
Staining intensity of cardiac red blood cells (pixels) (mean ± se) ([3]; 25 µg/ml): 2036 ± 92 pixels | Staining intensity of cardiac red blood cells (pixels) (mean ± se) ([3]; 25 µg/ml, listed as aspirin): 2036 pixels | Antithrombotic effect (%) ([3]; 25 µg/ml): 70^*** % | Antithrombotic effect (%) ([3]; 25 µg/ml, listed as aspirin): 70%
